Laboratory results taken from patent US20240300940A1, “Phenothiazinyl Compounds and Uses” (Prosetta Biosciences, Inc., priority 2023, published 2024).

Experiments:
Hennes-20 cells = test: Hennes-20 oncology screen; type: cell-based; conditions: 72 h, alamar Blue
Experimental: To screen compounds for oncology activity Hennes-20 cells were plated at low (500 cells/well) versus high (15,000 cells/well) densities and treated with DMSO (vehicle) or dose-titration of compounds. The rationale for this screen is that an intrinsically toxic compound should kill cells regardless of density, including in Hennes-20 cells. However, a compound that selectively triggers the arrest of proliferation will inhibit cell growth when plated at a low density will appear cytotoxic due to inhibition of cell growth when plated at a low density but will appear non-toxic to cells plated at a high density where the cells are approaching confluence and the readout detected by a cell viability assay is already close to the maximum.
To conduct the Hennes-20 screen, two 96 well plates were seeded with Hennes 20 cells in parallel where one was plated at a density of 500 cells/well and the other was plated at a density of 15,000 cells/well. 90 uL of minimum essential media was added to each well and plates were placed in a 37 degrees Celsius incubator for 24 hours. The next day, 10 ul of media containing dilutions of compound in DMSO were added to each plate. Six wells on each plate received 10 ul of media containing only DMSO. Each well was gently mixed 5 times with a 100 ul pipette. Plates were incubated at 37 degrees Celsius for 72 hours and then 10 uL of alamar Blue was added to each well. Wells were mixed 5 times then incubated at 37 degrees Celsius for […]. Plates were then read at 530/590.
The rationale for the screen is as follows: Hennes-20 cells lack endogenous apoptosis. Cells plated at low density will proliferate and approach confluence in 72 hrs. A drug that arrests proliferation may have its proliferation blocking effect masked by the triggering of endogenous apoptosis. However, in the Hennes line, lacking endogenous apoptosis, such an arrest is manifest as a dose-dependent maintenance at low cell density. Since the high-density cells are plated close to confluence, the difference between Alamar Blue cell survival readings after 72 hrs reflects the ability of the drug to block proliferation in the low density-plated cells. In the high density-plated cells any diminution of Alamar Blue readout vs vehicle control is due to intrinsic toxicity, not proliferation arrest, since cells were already at confluence. Thus, a compound that appears toxic (low Alamar Blue readings after 72 hrs) on the low-density plate, but which appears non-toxic (high Alamar Blue readings after 72 hrs) on the high-density plate, must be arresting proliferation, since intrinsic compound toxicity should be observed at both low and high cell densities, not selectively on the low-density plate.

E. coli ATCC25922 = test: MIC assay, serial dilution; conditions: for MIC: Escherichia coli, ATCC25922, read-out: Anti-bacterial Activity (E. coli MIC (uM)), E. coli, Table 5

SMILES	EC50 (Hennes-20 cells) [nM]	MIC (E. coli ATCC25922) [µM]	Anti-bacterial Activity (E. coli MIC (uM)) (E. coli ATCC25922; E. coli, Table 5) [µM]
CCc1cc(N2CC3C(C2)C3(C)C)cc2[s+]c3cc(N4CC5C(C4)C5(C)C)cc(C)c3nc12 (centres unmarked) [Compound 12]	< 500	6.25	
CC(C)(C)c1cc(N2CCOCC2)cc2[s+]c3cc(N4CCOCC4)ccc3nc12 [Compound 88]	12500		
FC1CCN(c2ccc3nc4ccc(N5CCC(F)C5)cc4[s+]c3c2)C1 (centres unmarked) [Compound 54]		25	
c1cc2nc3ccc(N4CCCCC4)cc3[s+]c2cc1N1CCCCC1 [Compound 62]	< 500	6.3	
CC1C=CC(C)N1c1ccc2nc3ccc(N4C(C)C=CC4C)cc3[s+]c2c1 (centres unmarked) [Compound 61]		25	
c1cc2nc3ccc(N4CCCCCC4)cc3[s+]c2cc1N1CCCCCC1 [Compound 22]	< 500	1.6	
CCc1cc(N(CC)CC)cc2[s+]c3cc(N(CC)CC)cc(CC)c3nc12 [Compound 80]	< 2500	25	
CN(C)c1ccc2nc3ccc(N4CCCC4)cc3[s+]c2c1 [Compound 35]	500	12.5	
Cc1cc(N2CC3C(C2)C3(C)C)cc2[s+]c3c(F)c(N4CC5C(C4)C5(C)C)cc(C)c3nc12 (centres unmarked) [Compound 14]	< 500	6.25	
CCc1cc(N2CCCC2)cc2[s+]c3cc(N4CCCC4)cc(CC)c3nc12 [Compound 39]		3.1	
FC1(F)C2CN(c3ccc4nc5ccc(N6CC7C(C6)C7(F)F)cc5[s+]c4c3)CC21 (centres unmarked) [Compound 2]		1.6	
N#Cc1cc(N2CCCC2)cc2[s+]c3cc(N4CCCC4)cc(N4CCCC4)c3nc12 [Compound 78]	< 2500		
CCc1cc(N(C)C)cc2[s+]c3cc(N4CCCN(C(=O)OC(C)(C)C)CC4)cc(CC)c3nc12 [Compound 74]	< 500	6.3	
CN1CCN(c2ccc3nc4c(C(C)(C)C)cc(N5CCN(C)CC5)cc4[s+]c3c2)CC1 [Compound 85]	12500		
Fc1cc(N2CCCC2)cc2[s+]c3cc(N4CCCC4)cc(F)c3nc12 [Compound 44]		6.3	
Cc1cc(N2CCOCC2)cc2[s+]c3cc(N4CCOCC4)cc(C)c3nc12 [Compound 93]	< 12500	100	
CC1(C)C2CN(c3ccc4nc5c(F)cc(N6CC7C(C6)C7(C)C)cc5[s+]c4c3)CC21 (centres unmarked) [Compound 5]	< 100	6.25	
COc1cc2nc3c(N4CCCC4)cc(N4CCCC4)cc3[s+]c2cc1N1CCCC1 [Compound 76]	< 2500		
COCCN(CCOC)c1ccc2nc3c(C(C)(C)C)cc(N(CCOC)CCOC)cc3[s+]c2c1 [Compound 67]	< 500		

SMILES	EC50 (Hennes-20 cells) [nM]	MIC (E. coli ATCC25922) [µM]	Anti-bacterial Activity (E. coli MIC (uM)) (E. coli ATCC25922; E. coli, Table 5) [µM]
Fc1cc(N2CCCC2)cc2[s+]c3cc(N4CCCC4)ccc3nc12 [Compound 43]	500	3.1	
CC(C)(C)c1cc(N2CCCC2)cc2[s+]c3cc(N4CCC(C(=N)N)CC4)ccc3nc12 [Compound 89]	12500		
FC(F)(F)c1cc(N2CCCC2)cc2[s+]c3cc(N4CCCC4)ccc3nc12 [Compound 71]	< 2500		
c1cc2nc3ccc(N4CC5CC5C4)cc3[s+]c2cc1N1CC2CC2C1 (centres unmarked) [Compound 3]		1.6	
CC1(C)C2CN(c3ccc4nc5c(N6CCCC6)cc(N6CC7C(C6)C7(C)C)cc5[s+]c4c3)CC21 (centres unmarked) [Compound 4]	500	3.1	
CC1(C)C2CN(c3ccc4nc5c(N6CC7C(C6)C7(C)C)cc(N6CC7C(C6)C7(C)C)cc5[s+]c4c3)CC21 (centres unmarked) [Compound 6]	500	6.3	
CC(C)(C)c1cc(N2CCC(C(=N)N)CC2)cc2[s+]c3cc(N4CCCC4)ccc3nc12 [Compound 91]	> 12500		
CCCCc1cc(N2CCCC2)cc2[s+]c3cc(N4CCCC4)ccc3nc12 [Compound 70]	< 2500		
CC(C)(C)c1cc(N2CCC(C(=N)N)CC2)cc2[s+]c3cc(N4CCC(C(=N)N)CC4)ccc3nc12 [Compound 90]	12500		
c1cc(N2CCCC2)c2nc3ccc(N4CCCC4)cc3[s+]c2c1 [Compound 38]	2500	6.3	
CC1(C)C2CN(c3ccc4nc5cc(CN)c(N6CC7C(C6)C7(C)C)cc5[s+]c4c3)CC21 (centres unmarked) [Compound 7]		6.3	
Cc1cc(N2CCCC2)cc2[s+]c3cc(N4CCCC4)cc(C)c3nc12 [Compound 40]		1.6	
NCc1cc2nc3ccc(N4CCCC4)cc3[s+]c2cc1N1CCCC1 [Compound 27]		12.5	
Cc1cc(N2CCCC2)cc2[s+]c3c(F)c(N4CCCC4)cc(C)c3nc12 [Compound 21]	< 500	1.6	
CCc1cc(C(C)C)cc2[s+]c3cc(N(C)C)cc(CC)c3nc12 [Compound 60]	< 2500		
CC1(C)CCCN1c1ccc2nc3ccc(N4CCCCCC4)cc3[s+]c2c1 [Compound 28]		12.5	
CC(C)(C)OC(=O)NC1CCN(c2ccc3nc4ccc(N5CCC(NC(=O)OC(C)(C)C)C5)cc4[s+]c3c2)C1 (centres unmarked) [Compound 51]		6.3	
CC1(C)C2CN(c3cc(N4CCCC4)cc4[s+]c5cc(N6CCCC6)ccc5nc34)CC21 (centres unmarked) [Compound 23]	< 500	1.6	
CN(C)c1ccc2nc3ccc(N4CC5C(C4)C5(C)C)cc3[s+]c2c1 (centres unmarked) [Compound 31]	< 2500	1.6	

SMILES	EC50 (Hennes-20 cells) [nM]	MIC (E. coli ATCC25922) [µM]	Anti-bacterial Activity (E. coli MIC (uM)) (E. coli ATCC25922; E. coli, Table 5) [µM]
Cc1cc(N2CC3C(C2)C3(C)C)cc2[s+]c3cc(N4CC5C(C4)C5(C)C)cc(C)c3nc12 (centres unmarked) [Compound 11]	< 500	6.25	
CC(C)(C)OC(=O)NCC1CCCN1c1ccc2nc3ccc(N4CCCC4CNC(=O)OC(C)(C)C)cc3[s+]c2c1 (centres unmarked) [Compound 49]	< 2500	1.6	
CC1(C)C2CN(c3ccc4nc5ccc(N6CCCCCC6)cc5[s+]c4c3)CC21 (centres unmarked) [Compound 30, 3-[6,6-dimethyl-3-azabicyclo[3.1.0]hexan-N-yl]-7-(azepan-1-yl) phenothiazinium iodide]		0.8	
CCc1cc(N2CCCC2)cc2[s+]c3cc(N4CCCC4)cc(C(C)C)c3nc12 [Compound 64]			6.3
c1ccc2c(c1)Sc1ccccc1N2c1ccc2nc3c(N4CCCC4)cc(N4CCCC4)cc3[s+]c2c1 [Compound 19]		12.5	
CCc1cc(N2CCCNCC2)cc2[s+]c3cc(N4CCCC4C)cc(CC)c3nc12 (centres unmarked) [Compound 81]	< 2500		
c1cc2nc3ccc(N4CCC5(CCC5)C4)cc3[s+]c2cc1N1CCC2(CCC2)C1 [Compound 17]		3.1	
COc1cc2nc3ccc(N4CCCC4)cc3[s+]c2cc1N1CCCC1 [Compound 84]	< 12500		
CC1(C)CCCN1c1ccc2nc3ccc(N4CCCC4(C)C)cc3[s+]c2c1 [Compound 52]		12.5	
FC(F)(F)c1cc(N2CCCC2)cc2[s+]c3cc(N4CCCC4)cc(N4CCCC4)c3nc12 [Compound 75]	< 2500		
c1ccc(C2CCN(c3ccc4nc5ccc(N6CCC(c7ccccc7)C6)cc5[s+]c4c3)C2)cc1 (centres unmarked) [Compound 47]		3.1	
CCN(CC)c1cc(Br)c2nc3c(C(C)(C)C)cc(N(CC)CC)cc3[s+]c2c1 [Compound 63]	2500		
Clc1cc(N2CCCC2)cc2[s+]c3cc(N4CCCC4)ccc3nc12 [Compound 86]	< 500		
FC(F)(F)C1CCCN1c1ccc2nc3ccc(N4CCCC4C(F)(F)F)cc3[s+]c2c1 (centres unmarked) [Compound 48]		3.1	
Cc1cc(N2CCCC2)cc2[s+]c3cc(N4CCCC4)ccc3nc12 [Compound 79]	< 12500		
CCc1cccc2[s+]c3cc(N4CCCC4)ccc3nc12 [Compound 37]		6.3	
Cc1cc(N(C)C)cc2[s+]c3cc(N4CCCC4)cc(C)c3nc12 [Compound 33]		1.6	
CC(C)(C)OC(=O)NC1CCN(c2ccc3nc4ccc(N5CC6C(C5)C6(C)C)cc4[s+]c3c2)C1 (centres unmarked) [Compound 32]		6.25	
